Test results taken from article PMC11755562, “Peptide Inhibitor Assay for Allocating Functionally Important Accessible Sites Throughout a Protein Chain: Restriction Endonuclease EcoRI as a Model Protein System” (BioTech, 2024).
“Also recorded” adds a separate entry of the source.

What was measured:
[1] = biological target: T1, EcoRI (Escherichia coli, UniProt P00642); test: Nonspecific nuclease activity of EcoRI reaction mixture with peptide (plasmid DNA degradation); type: biochemical; settings: EcoRI plus peptide 1:500, 3 h; n = 3
T1 construct: The first M is removed after translation in this protein; purchased New England Biolabs
Experimental: A recombinant plasmid, pCRII-TOPO (Invitrogen, Waltham, MA, USA), containing a PCR fragment of the full-length cDNA (978 bp) of the mouse odorant receptor OR23 [82, 83, 84, 85, 86] at the EcoRI cloning site (GAATTC) was used as a DNA substrate for EcoRI. […] This pCRII-TOPO-OR23 plasmid was prepared from TOP10F’ Escherichia coli (Invitrogen) using ATP Plasmid Mini Kit (ATP Biotech, Taipei, ROC). The plasmid solution was prepared at 40 ng/μL by adding autoclaved DNase-free RNase-free deionized H2O (Nippon Gene, Tokyo, Japan). The DNA concentrations were measured with a Qubit fluorometer (Invitrogen).
(§1) All master solutions and samples were prepared on ice. A single reaction tube contained the following common ingredients: autoclaved DNase-free RNase-free deionized H2O (12.5 μL) (Nippon Gene), 10× NE Buffer Mg^2+-free (2.0 μL), pCRII-TOPO-OR23 plasmid DNA (2.0 μL of 40 ng/μL solution), MgCl2 (1.5 μL of 0.20 mM solution), and EcoRI (1.0 μL). A master solution containing these ingredients without DMSO or a peptide was first prepared for the number of sample tubes. The master solution was aliquoted into 1.5 mL spin tubes (19.0 μL per tube). Then, 1.0 μL of DMSO or a peptide sample was added, and the mixture was incubated at 37 °C. A negative control with DMSO but without a peptide (“no peptide” control) was run in every assay. When the digestion efficiency was compared, another negative control with autoclaved DNase-free RNase-free H2O without EcoRI was prepared. After the reaction, the samples were quickly cooled on ice for ten minutes and then stored at −80 °C until agarose gel electrophoresis. The above protocol was conducted for all peptides (including BP19.5, BP19.5N, and BP19.5C) used in the present study unless otherwise noted.
This reaction mixture containing EcoRI and BP19.5 appeared to degrade the plasmid DNA entirely. […] The DNA concentration at 3 h was 3.297 ± 0.006 ng/μL without any peptide in the reaction mixture and 0.332 ± 0.003 ng/μL with BP19.5, indicating a statistically significant difference (n = 3; unpaired bi-sided Student’s t-test; p = 1.6 × 10^−11). […] Therefore, BP19.5 and its derivatives are likely to cause EcoRI to become a nonspecific nuclease. In other words, BP19.5 was likely a specificity/activity modifier of EcoRI instead of an inhibitor.

[2] = biological target: T1, EcoRI; test: Peptide inhibitor assay (PIA): EcoRI digestion of pCRII-TOPO-OR23 plasmid, fluorescence intensity of the excised OR23 band on agarose gel; type: biochemical; settings: 3 h
Experimental: Peptide synthesis was performed by GenScript Japan (Tokyo, Japan). All peptides were confirmed to be more than 75% pure via high-performance liquid chromatography (HPLC) and to have theoretical molecular weights via mass spectrometry (MS). The peptides were dissolved in DMSO (dimethyl sulfoxide) and were prepared at 5.59 × 10^−9 mol/μL (5.59 mM). When 1.0 μL of this peptide mixture was mixed in a tube for the inhibition of EcoRI catalytic activity, the molar ratio of EcoRI to peptide was 1:500. This concentration in molar equivalence was used throughout this study unless otherwise noted.
Purified and concentrated EcoRI (20,000 U/mL, approximately 338 μg/mL, 1.12 × 10^−[…]) was obtained from New England Biolabs (Ipswich, MA, USA). To quantify and visualize the inhibitory effects of the peptides, the enzymatic reaction conditions were set so that at least three hours of incubation were required to completely digest the substrate plasmid DNA with EcoRI. To do so, we used a low Mg^2+ concentration (0.015 mM) in the reaction mixture in contrast to the optimum concentration of Mg^2+ for EcoRI (10 mM).
as §1
To quantify EcoRI activity after incubation of a reaction mixture, digested pCRII-TOPO-OR23 plasmid DNA was examined via agarose gel electrophoresis. We first prepared a 25 mL solution of 1.0% agarose (Nippon Gene) in TAE (Tris-acetate-EDTA) buffer (Promega, Madison, WI, USA) to produce an agarose gel. An ethidium bromide solution (0.5 μL of 10 mg/mL) (Promega) was added before gelation. After incubation with EcoRI, the fluorescence intensity of the band of the excised OR23 fragment was measured via an ImageQuant LAS4000 (GE Healthcare Japan, Tokyo, Japan) with the following conditions: “Exposure Type”: Precision; “Exposure Time”: Manual 1/8 sec; “Sensitivity/Resolution”: Standard; and “Fluorescent Method”: Epi illumination; EtBr; UV (Trans UV) light; 6-5DF50 Filter; and F2.8 Iris.
For statistical analyses, Student’s t-test (unpaired and bi-sided), Dunnett’s test, and Pearson correlation analysis were performed via Microsoft Excel (Office 365) and JSTAT (Yokohama, Japan). The Dunnett’s test was performed for each experimental group that was examined simultaneously in the laboratory, in comparison to the “no peptide” control group that was examined simultaneously. The repeated measure mode of the Dunnett’s test was used on the assumption that there was no interaction between samples.

T1 sequence (P00642 2-277): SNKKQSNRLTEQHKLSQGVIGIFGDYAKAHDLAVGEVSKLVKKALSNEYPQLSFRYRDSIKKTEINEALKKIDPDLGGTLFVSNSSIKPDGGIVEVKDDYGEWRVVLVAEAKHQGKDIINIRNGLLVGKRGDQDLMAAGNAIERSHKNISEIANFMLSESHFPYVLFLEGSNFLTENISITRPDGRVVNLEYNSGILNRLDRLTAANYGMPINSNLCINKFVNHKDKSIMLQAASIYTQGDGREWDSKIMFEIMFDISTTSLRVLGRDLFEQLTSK

In the case of NLCINKFVNHKDK [BP20], the “plasmid DNA degradation / nonspecific nuclease induction (agarose gel electrophoresis, in words)” value [1] was “does not induce nuclease activity”, the “level of inhibitory effect on EcoRI (in words)” value ([2]; EcoRI:peptide 1:500, relative fluorescence intensity, n = 3) was “especially notable; also recorded: strong inhibitory effect; also recorded: most effective” and the “relative fluorescence intensity of excised OR23 fragment” value ([2]; relative to no peptide, EcoRI:peptide 1:500 molar ratio, 37 °C, 0.015 mM Mg2+, mean of n = 3) was “less than 0.3”.
